Measured values from US9295629B2, “WNT family-derived peptides and use thereof” (CAREGEN CO., LTD., priority 2011, dated 2016).
Where no end group is shown, it is not given here.

Assays:
HaCaT keratinocytes = assay: SRB colorimetric cell growth assay, keratinocytes; assay type: cell-based; details: 72 hr; for growth of keratinocytes, microscope image: observed under a microscope (FIG. 3a); for effect on the growth of keratinocytes: peptide 1 ng/ml-10 μg/ml, SRB absorbance at 590 nm (FIG. 2a)
Method: (§1) In order to evaluate three peptides prepared in Preparation Examples 1-2 whether they have similar activities of growth factor, SRB (Sulforhodamine B; Sigma-Aldrich) colorimetric assay was carried out using HaCaT kerationcytes (Korean Cell Line Bank) and NIH3T3 fibroblasts (Korean Cell Line Bank) according to Rizzino et al. method (Rizzino, et al. Cancer Res., 48: 4266 (1988)).
(§2) HaCaT ketatinocytes, NIH3T3 fibroblasts, and HHFDPC hair follicle cells (cell science) were cultured in 250 ml-flasks containing DMEM (Dulbecco's Modified Eagle's minimal essential media; Gibco, USA) supplemented with 10% FBS (fetal bovine serum; Sigma). Cells cultured were treated with 1% trypsin solution to detach cells from the bottom of culture flasks and centrifuged to collect cell pellets. After cells were resuspended in DMEM not containing FBS, its aliquot (3×10^3 cells) was added to each well of 96-well plates and cultured under 5% CO2 for 24 hr at 37° C. After 24-hr culture, the medium was changed with a fresh medium without serum and cells were incubated with empty sample (for normalization) and peptides synthesized (1 ng/ml, 10 ng/ml, 100 ng/ml, 1 μg/ml and 10 μg/ml) aseptically dissolved in 10% DMSO for 72 hr under the same conditions as described above. After removing supernatants, cells were fixed with ethanol and then washed three times using PBS (phosphate buffered saline), followed by incubation with SRB solution. Cells were sufficiently washed with 1% acetic acid and observed under a microscope to find living cell condition. In addition, absorbance at 590 nm was measured to analyze cell viability. Meanwhile, after culturing under the same conditions, the tissue was immunostained by an immunohistochemical assay with ki-67 antibody (SantaCruz, USA) and the amount of ki-67 protein as a cell proliferation marker was observed.

NIH3T3 fibroblasts = assay: SRB colorimetric cell growth assay, fibroblasts; assay type: cell-based; details: for growth of fibroblasts, microscope image: NIH3T3, 72 hr, observed under a microscope (FIG. 3b); for effect on the growth of fibroblasts: NIH3T3, peptide 1 ng/ml-10 μg/ml, 72 hr, SRB absorbance at 590 nm (FIG. 2b)
Method: as §1, §2

[1] = test system: HHFDPC hair follicle cells; assay: SRB colorimetric cell growth assay, hair follicle cells; assay type: cell-based; details: 72 hr; for growth of cells in hair follicles, microscope image: observed under a microscope (FIG. 3c); for effect on the growth of cells in hair follicles: peptide 1 ng/ml-10 μg/ml, SRB absorbance at 590 nm (FIG. 2c)
Method: as §2

LRP5 = assay: Western blot of Phospho-LRP5 in HaCaT keratinocytes; assay type: cell-based; details: peptide 5 hr, Western blot (FIG. 4)
Method: (§3) HaCaT kerationcytes cultured for 48 hr were incubated with the peptides synthesized in preparation Example 1 for 5 hr. The phosphorylation level of LRP5, which is the receptor of WNT protein and expression level of β-catenin, which is the signal molecule of WNT protein were examined respectively. The amount of Phopho-LRP5 and β-catenin were measured by Western blot analysis using an antibody against Phopho-LRP5 (Cell signaling) and β-catenin (SantaCruz, USA). In addition, the expression level of LEF-1 transcription factor was also observed, which is enhanced by β-catenin. […] First of all, it was shown that β-catenin activity is observed by treatment with the peptide of the present invention in spite of the presence of DKK-1 as a WNT inhibitor and a β-catenin signaling inhibitor (FIG. 5b). It was also observed that the expression level of LEF-1 transcription factor was increased by the treatment of the present peptides (FIG. 6).

β-catenin = assay: Western blot of β-catenin in HaCaT keratinocytes; assay type: cell-based; details: for expression level / activity of β-catenin: peptide 5 hr, Western blot (FIG. 5a); for β-catenin expression / activity in the presence of DKK-1: with DKK-1 (WNT inhibitor), Western blot (FIG. 5b)
Method: as §3

fibronectin = assay: Fibronectin ELISA in NIH3T3 fibroblasts; assay type: cell-based; details: for fibronectin expression with the lapse of time: NIH3T3, peptide 1 μg/ml, 3, 10, 24 or 48 hr, ELISA (FIG. 7a); for fibronectin expression in the presence of DKK-1: NIH3T3, treated with both DKK-1 protein and peptide, ELISA (FIG. 7b)
Method: To verify whether the peptides synthesized in preparation Example 1 enhances the expression of fibronectin as a WNT target protein, NIH3T3 fibroblasts (4×10^3 cells) was added to each well of 96-well plates and cultured under 5% CO2 for 24 hr at 37° C. After 24-hr culture, the medium was changed with a fresh medium without serum and cells were treated with empty sample (for normalization), three peptides synthesized (1 μg/ml) and peptide complex (1 μg/ml) aseptically dissolved in 10% DMSO for 3 hr, 10 hr, 24 hr or 48 hr under the same conditions as described above. After 72 hr incubation, the cell culture was collected and the expression level of fibronectin was measured using Fibronectin ELISA kit (R&D systems, USA).
In addition, after DKK-1 protein was treated and cultured under the same conditions, the expression level of fibronectin was examined.

C57BL/6 mouse back skin = assay: Mouse hair growth, topical peptide nanosome; assay type: in vivo; details: nanosome topically twice every day for 15 days (FIG. 8)
Method: The peptide synthesized in Preparation Example 1 was formulated into nanosome. Afterwards, the back of C57BL/6 mouse was partially removed and then the skin was topically administered with the nanosome twice every day for 15 days.
50 mg of each peptide synthesized in preparation Examples was dissolved in 500 ml of distilled water by sufficient agitation. The peptide solution was mixed with 5 g lecithin, 0.3 ml sodium oleate, 50 ml ethanol and a small amount of oils, and its volume was adjusted with distilled water to 1 L. The resulting solution was subjected to a microfluidizer under high pressure for emulsification, thereby providing nanosomes having about 100-nm size. The nanosomes were prepared to have a final concentration of about 50 ppm and used as ingredients for cosmetics.

Substance	growth of keratinocytes, microscope image (HaCaT keratinocytes)	effect on the growth of keratinocytes (HaCaT keratinocytes)	growth of fibroblasts, microscope image (NIH3T3 fibroblasts)	effect on the growth of fibroblasts (NIH3T3 fibroblasts)	growth of cells in hair follicles, microscope image [1]	effect on the growth of cells in hair follicles [1]	phosphorylation level of LRP5 (LRP5)	expression level / activity of β-catenin (β-catenin)	β-catenin expression / activity in the presence of DKK-1 (β-catenin)	fibronectin expression with the lapse of time (fibronectin)	fibronectin expression in the presence of DKK-1 (fibronectin)	hair growth on mouse back skin (C57BL/6 mouse back skin)
LCCGRGHRTRTQR (cysteine pairing not given here) [peptide-1]	promote the growth	stimulatory effect	promote the growth	stimulatory effect	promote the growth	stimulatory effect	enhancement	enhancement	β-catenin expression in spite of the presence of DKK-1	gradually elevated	restored and enhanced	activity for promoting hair growth
peptide-2: WNT-derived peptide, amino acid sequence LCCGRGHNAR (WNT-derived peptide 2)	promote the growth	stimulatory effect	promote the growth	stimulatory effect	promote the growth	stimulatory effect	enhancement	enhancement	β-catenin expression in spite of the presence of DKK-1	gradually elevated	restored and enhanced	activity for promoting hair growth
peptide-3: WNT-derived peptide, amino acid sequence AERRRELCRC (WNT-derived peptide 3)	promote the growth	stimulatory effect	promote the growth	stimulatory effect	promote the growth	stimulatory effect	enhancement	enhancement	β-catenin expression in spite of the presence of DKK-1	gradually elevated	restored and enhanced	activity for promoting hair growth
peptide-4: WNT-derived peptide, amino acid sequence LCCGRGHNVL (WNT-derived peptide 4)	promote the growth	stimulatory effect	promote the growth	stimulatory effect	promote the growth	stimulatory effect	enhancement	enhancement	β-catenin expression in spite of the presence of DKK-1	gradually elevated	restored and enhanced	activity for promoting hair growth
